# Key:
# human recombinant PDE5 = target: T1, human recombinant PDE5 (Homo sapiens, UniProt O76074); assay: Inhibitory effect on cGMP-PDE (PDE5 IC50, one-step assay); assay type: biochemical; conditions: in vitro
# T1 construct: host or cells: Saccharomyces cerevisiae BJ2-54 (exemplary method)
# Description: The compounds of structural formula (I) were tested for an ability to inhibit PDE5. The ability of a compound to inhibit PDE5 activity is related to the IC50 value for the compound, i.e., the concentration of inhibitor required for 50% inhibition of enzyme activity. The IC50 value for compounds of structural formula (I) were determined using recombinant human PDE5.
# cGMP-PDE activity of compounds of the present invention was measured using a one-step assay adapted from Wells et al., Biochim. Biophys. Acta, 384, 430 (1975). The reaction medium contained 50 mM Tris-HCl, pH 7.5, 5 mM magnesium acetate, 250 μg/ml 5′-Nucleotidase, 1 mM EGTA, and 0.15 μM 8-[H^3]-cGMP. Unless otherwise indicated, the enzyme used was a human recombinant PDE5 (ICOS Corp., Bothell, Wash.).
# Compounds of the invention were dissolved in DMSO finally present at 2% in the assay.
SMILES,IC50 (human recombinant PDE5) [nM],melting point [°C]
"CN1C(=O)[C@H]2Cc3c([nH]c4ccccc34)C(c3ccc4c(c3)OCO4)N2C(=O)C1(C)C (mixture of isomers) [Example 1, (12a,R)-6-Benzo[1,3]dioxol-5-yl,2,3,3-trimethyl-2,3,6,7,12,12a-hexahydropyrazino[1′,2′:1,6]-pyrido[3,4-b]indole-1,4-dione]",161,225 to 235
"NC(=O)CC[C@@H]1NC(=O)[C@H]2Cc3c([nH]c4ccccc34)[C@@H](c3ccc4c(c3)OCO4)N2C1=O [Example 2, 3-((3S,6R,12aR)-6-Benzo[1,3]dioxol-5-yl-1,4-dioxo-1,2,3,4,6,7,12,12a-octahydropyrazino[1′,2′:1,6]-pyrido[3,4-b]indo-3-yl)propionamide]",2.2,78 to 82
"O=C1NNC(=O)N2[C@H](c3ccc4c(c3)OCO4)c3[nH]c4ccccc4c3C[C@H]12 [Example 3, (5aR,10R)-10-Benzo[1,3]dioxol-5-yl-5,5a,7,8,10,11-hexahydro-7,8,9a,11-tetraazabenzo[b]fluorene-6,9-dione]",113,188 to 194
"CN1CCC(=O)N2[C@H](c3ccc4c(c3)OCO4)c3[nH]c4ccccc4c3C[C@H]2C1=O [Example 4, (5aS,11R)-11-Benzo[1,3]dioxol-5-yl-7-methyl-5,5a,8,9,11,12-hexahydro-7H-7,10a,12-triaza-cyclohepta[b]fluorene-6,10-dione]",593,179 to 182

# The next lines start with the values.
IC50 (human recombinant PDE5) [nM],melting point [°C],SMILES
0.6,222 to 227,CC(C)(C)OC(=O)CC[C@@H]1NC(=O)[C@H]2Cc3c([nH]c4ccccc34)[C@@H](c3ccc4c(c3)OCO4)N2C1=O [Example 5]
1,,"O=C(O)CC[C@@H]1NC(=O)[C@H]2Cc3c([nH]c4ccccc34)[C@@H](c3ccc4c(c3)OCO4)N2C1=O [Example 6, 3-((3S,6R,12aR)-6-Benzo[1,3]dioxol-5-yl-1,4-dioxo-1,2,3,4,6,7,12,12a-octahydropyrazino[1′,2′:1,6]pyrido[3,4-b]indole-3-yl)propionic acid]"
0.2,,"CC(C)OC(=O)CC[C@@H]1NC(=O)[C@H]2Cc3c([nH]c4ccccc34)[C@@H](c3ccc4c(c3)OCO4)N2C1=O [Example 7, 3-((3S,6R,12aR)-6-Benzo[1,3]dioxol-5-yl-1,4-dioxo-1,2,3,4,6,7,12,12a-octahydropyrazino[1′,2′:1,6]pyrido[3,4-b]indol-3-yl)-propionic acid isopropyl ester]"
28,194 to 200,"O=C1N[C@H](CO)C(=O)N2[C@H](c3ccc4c(c3)OCO4)c3[nH]c4ccccc4c3C[C@H]12 [Example 8, (3R,6R,12aR)-6-Benzo[1,3]dioxo-5-yl-3-hydroxymethyl-2,3,6,7,12,12a-hexahydropyrazino[1′,2′:1,;6]pyrido[3,4-b]indole-1,4-dione]"
